Results from PubChem BioAssay (NCI).
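Method: 48-hour compound exposure of cells in 96-well plates, five concentrations, linear interpolation of endpoints. GI50: concentration for 50% inhibition of growth. At the TGI there is no net growth.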

What was measured:
Assay in all cases: inhibition of tumour cell growth, NCI panel, 48 h
[1] = test system: OVCAR-4 ovarian
[2] = test system: HOP-62 NSCLC
[3] = test system: A549 NSCLC
[4] = test system: NCI/ADR-RES ovarian
[5] = test system: A498 renal
[6] = test system: HCC-2998 colon
[7] = test system: NCI-H522 lung
[8] = test system: PC-3 prostate
[9] = test system: OVCAR-5 ovarian
[10] = test system: SR leukemia

SMILES	GI50 [1]	TGI [1]	GI50 [2]	TGI [2]	GI50 [3]	TGI [3]	GI50 [4]	TGI [4]	GI50 [5]	TGI [5]	GI50 [6]	TGI [6]	GI50 [7]	TGI [7]	GI50 [8]	TGI [8]	GI50 [9]	TGI [9]	GI50 [10]	TGI [10]
COc1cc(NS(=O)(=O)c2ccc(-c3cnc(C4CC4)o3)cc2)ccc1F	2.05 µM	36.2 µM	0.646 µM	18.8 µM	0.826 µM	> 45.8 µM	0.339 µM	10.2 µM	0.0833 µM	0.892 µM	1.09 µM	12.7 µM	0.316 µM	11.8 µM	0.329 µM	17 µM	1.15 µM	29.5 µM	0.102 µM	> 100 µM
Cc1ccc(C(=O)Nc2ccc(CN3CCN(C)CC3)c(C(F)(F)F)c2)cc1C#Cc1cnc(N)c2ccccc12	0.219 µM	1.33 µM	0.849 µM	2.13 µM	0.447 µM	1.26 µM	0.594 µM	1.82 µM	0.31 µM	1.3 µM	0.738 µM	1.56 µM	0.465 µM	1.36 µM	0.703 µM	1.72 µM	0.609 µM	1.5 µM	0.134 µM	2.66 µM
CC[CH2][Sn]([Cl])([Cl])[CH2]CC.Oc1ccccc1C=NCCN=Cc1ccccc1O	8.21 µM	21 µM	12.3 µM	25.4 µM	19.2 µM	41 µM	16 µM	37.8 µM	2.22 µM	6.03 µM	11.1 µM	23.8 µM	–	–	6.28 µM	22.7 µM	12.9 µM	26 µM	5.45 µM	> 100 µM
COc1ccc(-n2cc(-c3cc(OC)c(OC)c(OC)c3)[nH]c2=O)cc1Cl	> 100 µM	> 100 µM	51.7 µM	> 100 µM	> 100 µM	> 100 µM	> 100 µM	> 100 µM	73.9 µM	> 100 µM	> 100 µM	> 100 µM	> 100 µM	> 100 µM	> 100 µM	> 100 µM	> 100 µM	> 100 µM	55.4 µM	> 100 µM
COC(=O)C12C3C4C1C1C2C3C41NC(=O)c1csc([C@@H](C[C@H](C(C)C)N(C)C(=O)[C@@H](NC(=O)[C@H]2CCCCN2C)C2CC2)OC(C)=O)n1 (some centres undefined)	0.5 µM	> 33.3 µM	0.048 µM	> 33.3 µM	0.157 µM	> 33.3 µM	2.7 µM	> 33.3 µM	0.116 µM	> 10.6 µM	0.146 µM	> 33.3 µM	0.00401 µM	1.27 µM	0.0482 µM	> 33.3 µM	0.294 µM	> 33.3 µM	< 0.00333 µM	> 33.3 µM
COC(=O)[C@H](Cc1c[nH]c2ccccc12)NC(=O)[C@@H](OC)[C@@H]1Cc2cc3cc(OC4CC(OC5CC(O)C(O)C(C)O5)C(O)C(C)O4)c(C)c(O)c3c(O)c2C(=O)[C@H]1OC1CC(OC2CC(OC3CC(C)(O)C(O)C(C)O3)C(O)C(C)O2)C(O)C(C)O1 (some centres undefined)	0.0125 µM	> 16.5 µM	0.00771 µM	5.53 µM	0.00873 µM	> 16.5 µM	> 11.7 µM	> 16.5 µM	0.00517 µM	0.0249 µM	0.00659 µM	0.0382 µM	0.00509 µM	0.0552 µM	0.0088 µM	0.412 µM	0.0102 µM	> 16.5 µM	0.00376 µM	> 8.99 µM
COc1ccccc1Cn1cc2c(c1-c1ccccc1)CCc1cnoc1-2	8.56 µM	> 100 µM	3.73 µM	> 100 µM	4.31 µM	> 100 µM	0.848 µM	4.47 µM	1.1 µM	7.18 µM	5.48 µM	> 100 µM	0.398 µM	1.99 µM	3.75 µM	> 100 µM	9.82 µM	> 100 µM	0.491 µM	56.5 µM
CCN(CC)CCCC(C)Nc1cnc(C(=O)Nc2cccc3ccc(OC)nc23)cn1 (centres undefined)	1.98 µM	4.62 µM	1.83 µM	3.71 µM	2.6 µM	7.02 µM	2.62 µM	7.95 µM	4.52 µM	18 µM	1.82 µM	3.46 µM	1.89 µM	3.79 µM	2.83 µM	10.5 µM	1.81 µM	3.78 µM	2.27 µM	7.36 µM
COc1ccc(-c2nnc(COc3ccc(NC(=O)Nc4ccc(Cl)c(C(F)(F)F)c4)cc3F)o2)cc1	2.93 µM	13.7 µM	5.07 µM	21.8 µM	3.25 µM	18.7 µM	3.28 µM	> 100 µM	3.19 µM	20 µM	4.86 µM	53.1 µM	–	–	1.84 µM	12.7 µM	10.9 µM	71.4 µM	1.39 µM	4.09 µM
C=C1C(=O)O[C@H]2[C@H]1CC/C(COC(=O)c1cc3ccccc3s1)=C\CC[C@@]1(C)O[C@@H]21	2.08 µM	4.57 µM	1.81 µM	3.42 µM	2.04 µM	4.4 µM	2.14 µM	6.63 µM	10.1 µM	21.8 µM	1.75 µM	3.23 µM	0.987 µM	2.34 µM	1.83 µM	3.59 µM	2.02 µM	4.35 µM	0.52 µM	4.54 µM
Cc1ccc(NC(=O)NCCCOc2ccc(N3C(N)=NC(N)=NC3(C)C)cc2Cl)cc1S(=O)(=O)F	15.1 µM	> 100 µM	9.46 µM	> 100 µM	2.83 µM	> 100 µM	> 100 µM	> 100 µM	75.5 µM	> 100 µM	21.5 µM	> 100 µM	–	–	1.49 µM	> 100 µM	6.44 µM	> 100 µM	0.724 µM	> 100 µM
O=c1[nH]c(=O)n(C2OC(CO)C(O)C(O)C2O)cc1F (centres undefined)	–	> 100 µM	–	> 100 µM	–	> 100 µM	–	> 100 µM	–	> 100 µM	–	> 100 µM	–	> 100 µM	–	> 100 µM	–	> 100 µM	–	> 100 µM
